Test results from ChEMBL document CHEMBL3352625, “Development of novel neurokinin 3 receptor (NK3R) selective agonists with resistance to proteolytic degradation” (J Med Chem, 2014).
Active and inactive are the calls of the source. The calls are words filed in the database; no cut-off is given here. *1 amine or outer side, *2 acyl side, *3 side chain or, on linkers, in order; H or OH if unused. Where a SMILES comes first, the peptide text is derived from it. [ ]: non-standard residue; d: D form. Glyψ(E-CHCH)Leu = CC(C)C[C@H](/C=C/CN[*:1])C(=O)[*:2]; X4 = CC(C)C[C@H](N/C(CN[*:1])=N\O)C(=O)[*:2]; X3 = CC(C)C[C@H](NC(=N)CN[*:1])C(=O)[*:2]; X1 = CC(C)C[C@H](CCCN[*:1])C(=O)[*:2]; X2 = CC(C)C/C(=C\CCN[*:1])C(=O)[*:2]; NMeF = CN[C@@H](Cc1ccccc1)C(=O)O; Suc = O=C(CCC(=O)[*:2])[*:1]

Experiments:
Neuromedin-K receptor [1] = target: T1, Neuromedin-K receptor (Homo sapiens, UniProt P29371); experiment: Displacement of [125I]His3, MePhe7 from human NK3R expressed in CHO cell membranes by scintillation counting
T1 sequence (P29371 whole entry): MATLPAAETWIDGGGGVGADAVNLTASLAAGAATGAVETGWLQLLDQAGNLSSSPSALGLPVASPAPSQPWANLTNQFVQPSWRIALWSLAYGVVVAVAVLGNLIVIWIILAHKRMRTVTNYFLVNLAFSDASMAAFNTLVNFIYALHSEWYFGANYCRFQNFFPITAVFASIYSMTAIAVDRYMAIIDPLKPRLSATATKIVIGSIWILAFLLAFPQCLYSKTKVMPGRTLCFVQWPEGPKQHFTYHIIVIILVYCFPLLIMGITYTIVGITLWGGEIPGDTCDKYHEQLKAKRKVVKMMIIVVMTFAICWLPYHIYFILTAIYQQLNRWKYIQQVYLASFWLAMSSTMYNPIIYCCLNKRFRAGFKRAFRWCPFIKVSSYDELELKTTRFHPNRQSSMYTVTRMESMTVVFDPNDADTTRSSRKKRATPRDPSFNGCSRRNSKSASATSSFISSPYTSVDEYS

Neuromedin-K receptor [2] = target: T1, Neuromedin-K receptor; experiment: (§1) Agonist activity at human NK3R expressed in CHO cells assessed as induction of Ca2+ influx […]; format: functional, cell-based
[3] = target: Substance-P receptor (Homo sapiens) (UniProt P25103); experiment: Displacement of [125I]-BH-SP from human NK1R expressed in CHO cell membranes at 10 uM by scintillation counting
[4] = target: T2, Substance-K receptor (Homo sapiens) (UniProt P21452); experiment: Displacement of [125I]-NKA from […] expressed in CHO cell membranes at 10 uM by scintillation counting
T2 sequence (whole entry): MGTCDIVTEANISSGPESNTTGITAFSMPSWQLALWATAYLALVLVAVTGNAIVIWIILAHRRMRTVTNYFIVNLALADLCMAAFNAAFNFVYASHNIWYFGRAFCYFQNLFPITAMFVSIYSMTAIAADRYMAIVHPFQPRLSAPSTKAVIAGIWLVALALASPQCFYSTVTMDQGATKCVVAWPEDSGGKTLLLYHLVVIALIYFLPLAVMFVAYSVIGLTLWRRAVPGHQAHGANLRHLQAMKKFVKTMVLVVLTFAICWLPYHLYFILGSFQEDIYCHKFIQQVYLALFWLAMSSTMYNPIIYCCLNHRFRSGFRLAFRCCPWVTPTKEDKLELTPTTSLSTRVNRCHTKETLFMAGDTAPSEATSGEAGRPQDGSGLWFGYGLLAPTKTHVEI

[5] = target: T3, Neuromedin-K receptor (Homo sapiens) (UniProt P29371); experiment: as §1; format: functional, cell-based
T3 sequence (whole entry): T1 sequence (P29371 whole entry)

Neuromedin-K receptor [6] = target: T1, Neuromedin-K receptor; experiment: Agonist activity at human NK3R expressed in CHO cells assessed as potentiation of senktide-induced effect; format: cell-based
Neuromedin-K receptor [7] = target: T4, Neuromedin-K receptor (Rattus norvegicus, UniProt P16177); experiment: Agonist activity at rat NK3R
T4 sequence (P16177 whole entry): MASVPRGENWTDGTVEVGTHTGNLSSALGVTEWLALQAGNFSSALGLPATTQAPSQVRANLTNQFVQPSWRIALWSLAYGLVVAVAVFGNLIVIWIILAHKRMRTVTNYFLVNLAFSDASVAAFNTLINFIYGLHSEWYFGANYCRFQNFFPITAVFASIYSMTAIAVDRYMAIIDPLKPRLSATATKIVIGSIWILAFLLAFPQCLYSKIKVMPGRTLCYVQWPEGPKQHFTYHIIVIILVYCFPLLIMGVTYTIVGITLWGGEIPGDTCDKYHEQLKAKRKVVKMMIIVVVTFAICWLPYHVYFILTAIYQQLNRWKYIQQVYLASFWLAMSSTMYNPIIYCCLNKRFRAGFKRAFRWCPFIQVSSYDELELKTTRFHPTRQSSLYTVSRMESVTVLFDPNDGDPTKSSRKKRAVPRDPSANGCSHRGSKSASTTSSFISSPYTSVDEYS

[8] = Agonist activity at cattle NK3R; parameters: species or system Bos taurus
[9] = Agonist activity at goat NK3R; parameters: species or system Capra hircus
[10] = Induction of GnRH release in ovariectomized goat assessed as induction of multiple-unit activity volley measured as duration of effect at 200 nmol, iv as single dose; format: functional, Capra hircus

Substance-P receptor (Homo sapiens), sequence (P25103 whole entry): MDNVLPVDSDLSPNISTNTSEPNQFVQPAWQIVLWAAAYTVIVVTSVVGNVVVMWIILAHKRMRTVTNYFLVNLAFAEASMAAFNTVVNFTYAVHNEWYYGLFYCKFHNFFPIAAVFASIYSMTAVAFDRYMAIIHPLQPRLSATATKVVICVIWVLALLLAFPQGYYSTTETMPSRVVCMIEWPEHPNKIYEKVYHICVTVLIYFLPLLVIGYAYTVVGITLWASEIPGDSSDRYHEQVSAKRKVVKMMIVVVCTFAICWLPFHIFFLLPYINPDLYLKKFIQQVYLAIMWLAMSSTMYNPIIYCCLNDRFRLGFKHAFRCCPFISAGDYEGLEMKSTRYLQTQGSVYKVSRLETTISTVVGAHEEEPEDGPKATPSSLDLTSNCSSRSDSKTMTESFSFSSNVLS

Structure (SMILES)	IC50 (Neuromedin-K receptor [1])	EC50 (Neuromedin-K receptor [6])	also measured
CSCC[C@H](NC(=O)[C@H](CC(C)C)NC(=O)CNC(=O)[C@H](Cc1ccccc1)N(C)C(=O)[C@H](Cc1ccccc1)NC(=O)[C@H](Cc1ccccc1)NC(=O)[C@H](CC(=O)O)NC(=O)[C@H](Cc1cnc[nH]1)NC(=O)[C@@H](N)CCSC)C(N)=O (H-MHDFF[NMeF]GLM-NH2)	22 nM		EC50 (Neuromedin-K receptor [2]): 330 nM; inhibition [3]: 22%; inhibition [4]: 78%
CN(C(=O)[C@@H](N)Cc1ccccc1)[C@@H](Cc1ccccc1)C(=O)NCC(=O)O (H-Phe-[NMeF]-Gly-OH)			EC50 (Neuromedin-K receptor [2]): > 100000 nM
CN(C(=O)[C@H](Cc1ccccc1)NC(=O)[C@H](CC(=O)O)NC(=O)CCC(=O)O)[C@@H](Cc1ccccc1)C(=O)NCC(=O)O (Suc-DF[NMeF]G-OH)			Activity [5]: inactive
CSCC[C@H](NC(=O)[C@@H](/C=C/CNC(=O)[C@H](Cc1ccccc1)N(C)C(=O)[C@H](Cc1ccccc1)NC(=O)[C@H](CC(=O)O)NC(=O)CCC(=O)O)CC(C)C)C(N)=O (Suc-DF[NMeF][Glyψ(E-CHCH)Leu]M-NH2)	56 nM	16 nM	EC50 (Neuromedin-K receptor [7]): 19 nM; EC50 [8]: 360 nM; EC50 [9]: 11 nM; Time [10]: 92.1 min
CSCC[C@H](NC(=O)[C@@H](CCCNC(=O)[C@H](Cc1ccccc1)N(C)C(=O)[C@H](Cc1ccccc1)NC(=O)[C@H](CC(=O)O)NC(=O)CCC(=O)O)CC(C)C)C(N)=O (Suc-DF[NMeF][X1]M-NH2)	19000 nM	920 nM	
CSCC[C@H](NC(=O)/C(=C/CCNC(=O)[C@H](Cc1ccccc1)N(C)C(=O)[C@H](Cc1ccccc1)NC(=O)[C@H](CC(=O)O)NC(=O)CCC(=O)O)CC(C)C)C(N)=O (Suc-DF[NMeF][X2]M-NH2)	13000 nM	1900 nM	
CSCC[C@H](NC(=O)[C@H](CC(C)C)NC(=N)CNC(=O)[C@H](Cc1ccccc1)N(C)C(=O)[C@H](Cc1ccccc1)NC(=O)[C@H](CC(=O)O)NC(=O)CCC(=O)O)C(N)=O (Suc-DF[NMeF][X3]M-NH2)	360 nM	100 nM	
CSCC[C@H](NC(=O)[C@H](CC(C)C)N/C(CNC(=O)[C@H](Cc1ccccc1)N(C)C(=O)[C@H](Cc1ccccc1)NC(=O)[C@H](CC(=O)O)NC(=O)CCC(=O)O)=N\O)C(N)=O (Suc-DF[NMeF][X4]M-NH2)	1100 nM	370 nM	
